“Also recorded” adds a separate entry of the source.
Columns and labels:
glucose isomerase [1] = target: T1, glucose isomerase (Streptomyces murinus, UniProt P37031); test: Effect of gases on glucose isomerase reaction (vial runs, general statements); assay type: biochemical; conditions: for order of enhancing effect: glucose isomerase, generally observed
T1 construct: purchased Novo Sweetzyme T
Description: Two sets of 125 ml serum vials are prepared for each studied gas, one containing the glucose substrate solution (80 ml per vial) and the other one containing Sweetzyme T (5 g dry/vial).
On day D, place the substrate vials into a shaking water bath (60° C., 140 rpm). Allow them to equilibrate in temperature. For each substrate vial, fill a 60 cc B-D syringe with the appropriate gas or gas mixture and inject it in the vial. Remove the substrate vial from the shaker bath and replace it with the corresponding enzyme vial. Allow the positive pressure in the substrate vial to fill the syringe with glucose solution up to 60 ml. Stopper syringe needle with a septum. Repeat this procedure for each vial. When all the substrate vials have been sampled, inject the content of each syringe (60 ml of gas-saturated glucose solution) into the corresponding enzyme vial. The enzyme vials are injected at 2 minute intervals. The time of the injection determine t0 for each vial.
The respective concentrations of glucose and fructose in the samples are determined by High Pressure Liquid Chromatography.

α-amylase = test: Effect of noble gases on α-amylase reaction; assay type: biochemical, Bacillus licheniformis; conditions: generally observed
Text: PNPG7 is p-nitrophenyl-α-D-maltoheptaoside.
1. Reaction Principle: [drawing 3] 2.

glucose isomerase [2] = target: T1, glucose isomerase; test: Glucose isomerase column runs under gas saturation (Example 7); assay type: biochemical; conditions: for reaching point of equilibrium (fructose to glucose vs glucose to fructose conversion): 100 hr run, gas saturated columns, FIG. 13; for averages of fructose to glucose and glucose to fructose conversions: averages for each gas, FIG. 15; for conversion of glucose to fructose (activity+flow rate difference): lower flow rate, under Ne, Ar and N2, FIG. 11
Description: A comprehensive experiment was undertaken in order to relate the effects of noble gases upon the important process parameters of temperature, flow rate, enzyme activity and reaction equilibrium. In this experiment, four identical jacketed 1.6×35 cm (70 cc bed volume) columns containing 15 grams dry weight (40 cc bed volume) of the glucose isomerase packing used in the Vial. Runs were prepared according to the protocol outlined above. The columns and substrates were saturated with the gas of interest from a choice of argon, neon, nitrogen, krypton, xenon, helium, or a decile combination of any two or three of these.
One column was run at 0.2 ml/min at 50°, one at 0.2 ml/min at 60°, one at 0.5 ml/min at 50°, and one at 0.5 ml/min at 60°. […] During the first set of experiments, glucose feedstock (as prepared above) was used. During the second set, fructose feedstock of identical concentration was used to analyze the reverse reaction.
Data collected included flow rate, % glucose, % fructose, quantitative evaluation of fructose and glucose, dry solids, temperature, and residual gases.
Comparison of the data for each combination of experiments allows the determination of the effect of the gas, the temperature, the flow rate, the enzyme activity, and the reaction equilibrium. These are each determined independently, then the contribution of each parameter to the others can be calculated. For instance, elevating the temperature increases the flow rate, while lowering temperature and increasing the flow rate maximizes gas effects.

amyloglucosidase = target: T2, amyloglucosidase (Aspergillus niger, UniProt P69328); test: Effect of noble gases on amyloglucosidase reaction; assay type: biochemical; conditions: amylyoglucoside (so in the source), generally observed
T2 construct: purchased Sigma Chemical A-7420
T2 sequence (P69328 25-640): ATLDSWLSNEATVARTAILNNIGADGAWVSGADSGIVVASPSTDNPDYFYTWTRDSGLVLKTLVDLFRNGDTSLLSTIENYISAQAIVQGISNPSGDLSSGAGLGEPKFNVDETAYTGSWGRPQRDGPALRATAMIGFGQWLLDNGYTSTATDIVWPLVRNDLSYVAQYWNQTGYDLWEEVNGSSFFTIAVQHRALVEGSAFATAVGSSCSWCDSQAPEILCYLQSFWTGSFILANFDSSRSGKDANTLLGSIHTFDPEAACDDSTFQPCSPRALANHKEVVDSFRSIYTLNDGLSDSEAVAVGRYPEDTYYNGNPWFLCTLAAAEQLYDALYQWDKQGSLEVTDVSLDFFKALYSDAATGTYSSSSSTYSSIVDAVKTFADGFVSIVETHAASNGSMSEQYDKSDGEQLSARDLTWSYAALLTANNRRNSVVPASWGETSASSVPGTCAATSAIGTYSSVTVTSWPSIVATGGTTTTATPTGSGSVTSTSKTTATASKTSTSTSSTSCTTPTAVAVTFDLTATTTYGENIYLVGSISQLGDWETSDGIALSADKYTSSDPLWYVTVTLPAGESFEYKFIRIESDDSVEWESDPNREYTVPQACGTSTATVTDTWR
Text: 1. Reaction Principle: [drawing 3] 2. Solution Preparation:

Gas solubility = assay type: physicochemical
[3] = system: amylase, amyloglucosidase and glucose isomerase; test: Enzymatic reaction enhancement in the HFCS process (all three enzymes); assay type: biochemical
Text: Generally, in accordance with the present invention, enzymatic reaction enhancements measured in terms of either rate of yield or stability parameters, and are relative to reactions conducted in air or with no added gases, or to reactions run with added nitrogen, or to a combination of the above. Depending upon the relative controls, enhancements of rate between about 0 and 20% and yield enhancements of about 0 to 5% for glucose isomerase have been obtained.

T1 sequence (P37031 whole entry): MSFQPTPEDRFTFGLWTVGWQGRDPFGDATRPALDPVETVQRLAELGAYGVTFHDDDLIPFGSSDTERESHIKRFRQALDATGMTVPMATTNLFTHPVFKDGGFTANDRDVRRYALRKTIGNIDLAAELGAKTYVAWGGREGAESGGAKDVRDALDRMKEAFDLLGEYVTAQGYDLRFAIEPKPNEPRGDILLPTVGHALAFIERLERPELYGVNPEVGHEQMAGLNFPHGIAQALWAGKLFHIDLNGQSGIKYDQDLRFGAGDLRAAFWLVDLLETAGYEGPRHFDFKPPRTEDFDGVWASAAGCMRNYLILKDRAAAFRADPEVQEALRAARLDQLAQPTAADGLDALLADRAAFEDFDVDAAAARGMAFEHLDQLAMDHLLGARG

SMILES | inhibition of glucose isomerase / Sweetzyme T activity (glucose isomerase [1]) | order of enhancing effect (α-amylase) | reaching point of equilibrium (fructose to glucose vs glucose to fructose conversion) (glucose isomerase [2]) | averages of fructose to glucose and glucose to fructose conversions (glucose isomerase [2]) | conversion of glucose to fructose (activity+flow rate difference) (glucose isomerase [2]) | order of enhancing effect (amyloglucosidase) | order of enhancing effect (glucose isomerase [1]) | solubility (Gas solubility) | effectiveness in enhancing enzymatic activity [3]
O=O [oxygen] | greatly inhibited; also recorded: inhibitor |  |  |  |  |  |  |  | 
[Ne] [neon] |  | Xe>Ar>Ne>Kr>He | reach equilibrium before nitrogen saturated columns | improvement | significant but lesser enhancement over nitrogen | Xe>Ar>Ne>Kr>He | Ne>Ar>Kr>Xe>He |  | 
[Xe] [xenon] |  | Xe>Ar>Ne>Kr>He |  |  |  | Xe>Ar>Ne>Kr>He | Ne>Ar>Kr>Xe>He |  | 
[He] [helium] |  | Xe>Ar>Ne>Kr>He |  |  |  | Xe>Ar>Ne>Kr>He | Ne>Ar>Kr>Xe>He | low solubility | effective
[Kr] [krypton] |  | Xe>Ar>Ne>Kr>He |  |  |  | Xe>Ar>Ne>Kr>He | Ne>Ar>Kr>Xe>He |  | 
[Ar] [argon] |  | Xe>Ar>Ne>Kr>He | reach equilibrium before nitrogen saturated columns | improvement | highest conversion | Xe>Ar>Ne>Kr>He | Ne>Ar>Kr>Xe>He |  | 
